Measured values taken from patent US20220298146A1, “HETEROCYCLIC DERIVATIVE AND USE THEREOF” (Transthera Sciences (Nanjing), Inc., priority 2019, published 2022).

The compounds below were run against T1, H1299 cell pAxl (Homo sapiens, UniProt P30530) (assay: Inhibitory activity on cell pAxl (H1299 cells, hGAS6 stimulation, Western Blot)). Conditions: hGAS6 200 ng/mL, tested at 1.1, 3.3, 10 and 30 nM, read-out: Inhibitory Activity on Cell pAx1, IC50.
T1 construct: endogenous in cells; host or cells: H1299
T1 sequence (P30530 26-894): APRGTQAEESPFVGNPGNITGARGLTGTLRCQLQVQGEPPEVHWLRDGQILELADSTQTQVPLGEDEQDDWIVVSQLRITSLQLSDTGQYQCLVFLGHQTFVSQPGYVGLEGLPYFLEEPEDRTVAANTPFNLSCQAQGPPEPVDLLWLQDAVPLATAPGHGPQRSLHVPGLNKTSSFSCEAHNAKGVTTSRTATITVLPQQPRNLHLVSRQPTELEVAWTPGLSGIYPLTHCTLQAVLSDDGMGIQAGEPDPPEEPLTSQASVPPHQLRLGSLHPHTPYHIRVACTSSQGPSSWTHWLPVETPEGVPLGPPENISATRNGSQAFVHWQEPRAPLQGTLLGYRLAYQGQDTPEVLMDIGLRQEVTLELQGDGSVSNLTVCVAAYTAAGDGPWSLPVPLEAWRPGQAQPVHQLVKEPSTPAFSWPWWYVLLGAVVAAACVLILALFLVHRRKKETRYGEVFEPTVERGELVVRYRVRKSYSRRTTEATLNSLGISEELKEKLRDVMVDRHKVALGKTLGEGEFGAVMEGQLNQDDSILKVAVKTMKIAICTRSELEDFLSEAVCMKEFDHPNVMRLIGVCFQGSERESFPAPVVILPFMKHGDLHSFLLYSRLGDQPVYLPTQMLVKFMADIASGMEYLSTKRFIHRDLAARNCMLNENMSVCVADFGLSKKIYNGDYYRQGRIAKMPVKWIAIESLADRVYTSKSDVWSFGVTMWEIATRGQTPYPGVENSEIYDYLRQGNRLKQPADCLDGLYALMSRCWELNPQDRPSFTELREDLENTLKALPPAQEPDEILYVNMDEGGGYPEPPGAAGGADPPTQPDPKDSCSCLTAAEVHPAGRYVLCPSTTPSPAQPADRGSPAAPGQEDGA
Type: cell-based
Description: H1299 is a non-small cell lung cancer cell.
Test samples: the compounds of the present invention, having structures shown above.
Test instruments: protein electrophoresis apparatus (made by Bio Rad), membrane transfer apparatus (made by Bio Rad), exposure apparatus (made by Tanon), and CO2 cell incubator (made by Thermo).
H1299 cells were inoculated into a 6-well plate (containing 10% FBS 1640 medium, 5×10^5 cells per well) and adherently cultivated at 37° C. and 5% CO2 for 18 h. The cells were starved overnight, and compounds with different concentrations were added. The compounds had final concentrations of 1.1 nM, 3.3 nM, 10 nM and 30 nM, with DMSO having a final concentration of 1‰. There was a medium containing 10‰ DMSO in the negative control well. The cells were incubated at 37° C. and 5% CO2 for 60 min, and then hGAS6 (R&D, final concentration: 200 ng/mL) was added to each well. The cells were further incubated for 60 min, and then the total protein of the cells was extracted for Western Blot experiment. IC50 values were calculated with GraphPad 5.0 software, and the inhibitory activities of the compounds on cell pAxl were detected.

SMILES	IC50 [nM]
CC(C)n1cc(-c2ccc(F)cc2)c(=O)c(C(=O)Nc2ccc(Oc3ccnc(N)c3Cl)cn2)n1 [Compound 11, N-(5-((2-amino-3-chloropyridin-4-yl)oxy)pyridin-2-yl)-5-(4-fluorophenyl)-1-isopropyl-4-oxo-1,4-dihydropyridazine-3-carboxamide]	< 1.1
CC(C)n1cc(-c2ccc(F)cc2)c(=O)c(C(=O)Nc2ccc(Oc3ccnc(N)c3Cl)nc2)n1 [Compound 13, N-(6-((2-amino-3-chloropyridin-4-yl)oxy)pyridin-3-yl)-5-(4-fluorophenyl)-1-isopropyl-4-oxo-1,4-dihydropyridazine-3-carboxamide]	1.1 to 3.3
Nc1nccc(Oc2cnc(NC(=O)c3nn(C4CC4)cc(-c4ccc(F)cc4)c3=O)nc2)c1Cl [Compound 18, N-(5-((2-amino-3-chloropyridin-4-yl)oxy)pyrimidin-2-yl)-5-(4-fluorophenyl)-1-cyclopropyl-4-oxo-1,4-dihydropyridazine-3-carboxamide]	3.3
Cn1cc(-c2ccc(F)cc2)c(=O)c(C(=O)Nc2ccc(Oc3ccnc(N)c3Cl)cn2)n1 [Compound 33, N-(5-((2-amino-3-chloropyridin-4-yl)oxy)pyridin-2-yl)-5-(4-fluorophenyl)-1-methyl-4-oxo-1,4-dihydropyridazine-3-carboxamide]	3.3 to 10
C=CCn1cc(-c2ccc(F)cc2)c(=O)c(C(=O)Nc2ccc(Oc3ccnc(N)c3Cl)cn2)n1 [Compound 35, 1-allyl-N-(5-((2-amino-3-chloropyridin-4-yl)oxy)pyridin-2-yl)-5-(4-fluorophenyl)-4-oxo-1,4-dihydropyridazine-3-carboxamide]	< 1.1
C=CCn1cc(-c2ccc(F)cc2)c(=O)c(C(=O)Nc2ccc(Oc3ccnc(N)c3Cl)nc2)n1 [Compound 39, 1-allyl-N-(6-((2-amino-3-chloropyridin-4-yl)oxy)pyridin-3-yl)-5-(4-fluorophenyl)-4-oxo-1,4-dihydropyridazine-3-carboxamide]	1.1 to 3.3

The remaining lines, values ahead:

IC50 [nM]	SMILES
3.3	CC(C)n1cc(-c2ccc(F)cc2)c(=O)c(C(=O)Nc2ncc(Oc3ccnc(N)c3Cl)cn2)n1 [Compound 12, N-(5-((2-amino-3-chloropyridin-4-yl)oxy)pyrimidin-2-yl)-5-(4-fluorophenyl)-1-isopropyl-4-oxo-1,4-dihydropyridazine-3-carboxamide]
< 1.1	Nc1nccc(Oc2ccc(NC(=O)c3nn(C4CC4)cc(-c4ccc(F)cc4)c3=O)nc2)c1Cl [Compound 17, N-(5-((2-amino-3-chloropyridin-4-yl)oxy)pyridin-2-yl)-1-cyclopropyl-5-(4-fluorophenyl)-4-oxo-1,4-dihydropyridazine-3-carboxamide]
3.3 to 10	Nc1nccc(Oc2ccc(NC(=O)c3nn(C4CC4)cc(-c4ccc(F)cc4)c3=O)cn2)c1Cl [Compound 19, N-(6-((2-amino-3-chloropyridin-4-yl)oxy)pyridin-3-yl)-1-cyclopropyl-5-(4-fluorophenyl)-4-oxo-1,4-dihydropyridazine-3-carboxamide]
1.1	C=CCn1cc(-c2ccc(F)cc2)c(=O)c(C(=O)Nc2ncc(Oc3ccnc(N)c3Cl)cn2)n1 [Compound 37]
